Columns and labels:
[1] = system: Enterococcus faecalis (ATCC29212); experiment: Microtitre plate assay, IC90 determination; type: cell-based; conditions: 90% inhibitory concentration for bacterial growth
Method: (§1) The bacteria used in this study were grown overnight in flasks containing 100 ml Mueller-Hinton Broth (Becton Dickinson—cat. no. 275730) in sterile de-ionized water, with shaking, at 37° C. Stocks (0.5 ml/tube) were stored at −70° C. until use. Bacteria titrations were performed in microtiter plates and colony forming units (CFUs) were determined In general, an inoculum level of approximately 100 CFUs was used for susceptibility testing.
(§2) Flat-bottom, sterile 96-well plastic microtiter plates were filled with 180 μl of sterile deionized water, supplemented with 0.25% BSA. Subsequently, stock solutions (7.8× final test concentration) of compounds were added in 45 μl volumes in column 2. Serial five-fold dilutions (45 μl in 180 μl ) were made directly in the microtiter plates from column 2 to reach column 11. Untreated control samples with (column 1) and without (column 12) inoculum were included in each microtiter plate. Depending on the bacteria type, approximately 10 to 60 CFU per well of bacteria inoculum (100 TCID50), in a volume of 100 μl in 2.8× Mueller-Hinton broth medium, was added to the rows A to H, except column 12. The same volume of broth medium without inoculum was added to column 12 in row A to H. The cultures were incubated at 37° C. for 24 hours under a normal atmosphere (incubator with open air valve and continuous ventilation). At the end of incubation, one day after inoculation, the bacterial growth was quantitated fluorometrically. Therefore resazurin (0.6 mg/ml) was added in a volume of 20 μl to all wells 3 hours after inoculation, and the plates were re-incubated overnight. A change in colour from blue to pink indicated the growth of bacteria. The fluorescence was read in a computer-controlled fluorometer (Cytofluor Biosearch) at an excitation wavelength of 530 nm and an emission wavelength of 590 nm. The % growth inhibition achieved by the compounds was calculated according to standard methods. The IC90 (expressed in μg/ml) was defined as the 90% inhibitory concentration for bacterial growth.

[2] = system: Streptococcus pneumoniae (ATCC6305); experiment: Microtitre plate assay, IC90 determination; type: cell-based; conditions: 90% inhibitory concentration for bacterial growth
Method: as §1, §2

[3] = system: Listeria monocytogenes (ATCC49594); experiment: Microtitre plate assay, IC90 determination; type: cell-based; conditions: 90% inhibitory concentration for bacterial growth
Method: as §1, §2

[4] = system: Pseudomonas aeruginosa (ATCC27853); experiment: Microtitre plate assay, IC90 determination; type: cell-based; conditions: 90% inhibitory concentration for bacterial growth
Method: as §1, §2

[5] = system: Bacillus subtilis (ATCC43639); experiment: Microtitre plate assay, IC90 determination; type: cell-based; conditions: 90% inhibitory concentration for bacterial growth
Method: as §1, §2

[6] = system: Escherichia coli (ATCC25922); experiment: Microtitre plate assay, IC90 determination; type: cell-based; conditions: 90% inhibitory concentration for bacterial growth
Method: as §1, §2

[7] = system: Staphylococcus aureus (ATCC29213); experiment: Microtitre plate assay, IC90 determination; type: cell-based; conditions: 90% inhibitory concentration for bacterial growth
Method: as §1, §2

[8] = system: Streptococcus mutans (ATCC33402); experiment: Microtitre plate assay, IC90 determination; type: cell-based; conditions: 90% inhibitory concentration for bacterial growth
Method: as §1, §2

[9] = system: methicilline resistant Staphylococcus aureus (MRSA) (a clinical isolate from the University of Antwerp); experiment: Microtitre plate assay, IC90 determination; type: cell-based; conditions: 90% inhibitory concentration for bacterial growth
Method: as §1, §2

[10] = system: Staphylococcus aureus (ATCC25923); experiment: Microtitre plate assay, IC90 determination; type: cell-based; conditions: 90% inhibitory concentration for bacterial growth
Method: as §1, §2

[11] = system: Streptococcus pyogens (ATCC8668); experiment: Microtitre plate assay, IC90 determination; type: cell-based; conditions: 90% inhibitory concentration for bacterial growth
Method: as §1, §2

[12] = system: Staphylococcus aureus (ATCC43300); experiment: Microtitre plate assay, IC90 determination; type: cell-based; conditions: 90% inhibitory concentration for bacterial growth
Method: as §1, §2

[13] = system: Enterococcus faecalis (ATCC14506); experiment: Microtitre plate assay, IC90 determination; type: cell-based; conditions: 90% inhibitory concentration for bacterial growth
Method: as §1, §2

S. aureus = experiment: Time kill assay; type: cell-based, Staphylococcus aureus; conditions: for bactericidal activity in time kill assay: observed at 1 and 10 times MIC90
Text: (§3) Bactericidal or bacteriostatic activity of the compounds may be determined in a time kill assay using the broth microdilution method*. In a time kill assay on Staphylococcus aureus and methicillin resistant S. aureus (MRSA), the starting inoculum of S. aurues and MRSA is 10^6 CFU/ml in Muller Hinton broth. The antibacterial compounds are used at the concentration of 0.1 to 10 times the MIC (i.e. IC90 as determined in microtitre plate assay). Wells receiving no antibacterial agent constitute the culture growth control. The plates containing the microorganism and the test compounds are incubated at 37° C. After 0, 4, 24, and 48 hrs of incubation samples are removed for determination of viable counts by serial dilution (10^−1 to 10^−6) in sterile PBS and plating (200 μl) on Mueller Hinton agar. The plates are incubated at 37° C. for 24 hrs and the number of colonies are determined Killing curves can be constructed by plotting the log10 CFU per ml versus time. A bactericidal effect is commonly defined as 3-log10 decrease in number of CFU per ml as compared to untreated inoculum. The potential carryover effect of the drugs is removed by serial dilutions and counting the colonies at highest dilution used for plating. No carryover effect is observed at the dilution of 10^−2 used for plating. […] Antimicrob. Agents Chemother. 40, 839-845 (1996).
A time kill assay was performed with compound 102 and the control drug ciprofloxacin.

[14] = system: Escherichia coli (ATCC35218); experiment: Microtitre plate assay, IC90 determination; type: cell-based; conditions: 90% inhibitory concentration for bacterial growth
Method: as §1, §2

MRSA = experiment: Time kill assay; type: cell-based, methicillin resistant S. aureus
Text: as §3, with “(1996). […]” for “(1996).”

Structure (SMILES) | IC90 EFA 29212 [1] | IC90 SPN 6305 [2] | IC90 LMO 49594 [3] | IC90 PAE 27853 [4] | IC90 BSU 43639 [5] | IC90 ECO 25922 [6] | IC90 STA 29213 [7] | IC90 SMU 33402 [8] | IC90 STA RMETH [9] | IC90 STA 25923 [10] | IC90 SPY 8668 [11] | IC90 STA 43300 [12] | IC90 EFA 14506 [13] | MIC (1× MIC used in time kill assay) (S. aureus; MIC i.e. IC90 as determined in microtitre plate assay) | growth in time kill assay (S. aureus; at 0.1 times the MIC) | bactericidal activity in time kill assay (S. aureus) | IC90 ECO 35218 [14] | bactericidal activity in time kill assay (MRSA)
COc1nc2ccc(Br)cc2cc1C(c1ccccc1)C(O)(CC[N+](C)(C)C)c1cccc2ccccc12.[I-] (single isomer, unassigned) [Compound 102] | 2.8 µg/mL | 3.1 µg/mL | 2.2 µg/mL | 13.9 µg/mL | 2.8 µg/mL | 13.9 µg/mL | 2.8 µg/mL | 2.5 µg/mL | 2.8 µg/mL | 2.2 µg/mL | 2.5 µg/mL | 3.5 µg/mL | 2.8 µg/mL | 2.3 µg/mL | followed the control in growth | bactericidal activity | – | –
COc1nc2ccc(Br)cc2cc1C(c1ccccc1)C(O)(CC[N+](C)(C)C)c1cccc2ccccc12.[I-] (single isomer, unassigned) [Compound 103] | 2.8 µg/mL | 3.5 µg/mL | 0.5 µg/mL | 13.9 µg/mL | 2.8 µg/mL | 11.1 µg/mL | 2.0 µg/mL | 2.8 µg/mL | 2.2 µg/mL | 2.2 µg/mL | 2.8 µg/mL | 2.8 µg/mL | 2.8 µg/mL | – | – | – | 17.5 µg/mL | –
O=C(O)c1cn(C2CC2)c2cc(N3CCNCC3)c(F)cc2c1=O [ciprofloxacin, reference compound] | – | – | – | – | – | – | – | – | – | – | – | – | – | – | – | bactericidal activity | – | no bactericidal effect

From patent publication US20100197727A1, “Quinoline Derivatives as Antibacterial Agents” (priority 2005, published 2010)
